# Experimental data published in patent US20220175713A1, “DEPSIDE TRIMERIC COMPOUNDS FOR SKELETAL MUSCLE MODULATION” (SOCIETE DES PRODUITS NESTLE S.A., priority 2019, published 2022).
# Tested on: mouse hindlimb muscles injured with cardiotoxin
# Experiment: In vivo muscle regeneration after intramuscular cardiotoxin injury
# Conditions: mice, oral gavage 100 mg/kg body weight once a day from one week before injury, muscles harvested 5 days after injury, vs. water control, FIG. 6
# Experimental: (§1) Early phase of expansion and subsequent phase of myogenic differentiation of Muscle Stem Cells were evaluated by counting the number of Pax7+ cells (A) and myogenin+ cells (B), respectively. Data are expressed as number of cells per area of injured muscle. The size of each newly formed myofiber (C) has been measured based on the expression of the eMHC and laminin that allow to recognize and delineate these nascent myofibers. Results are shown as mean myofiber cross-sectional area (μm^2).
# In order to reproduce the physiological process of muscle regeneration that occurs in adult skeletal muscles in response to injury or disease, we performed an intramuscular injection of cardiotoxin into mouse hindlimb muscles. One week prior to the induction of the muscle injury, mice were given by oral gavage gyrophoric acid (at 100 mg/kg body weight) vs. water control. […] Several myogenic markers were then measured. […]
# as §1, with “(FIG. 6A)” for “(A)”, “(FIG. 6B),” for “(B),”, “(FIG. 6C)” for “(C)”, “Results are shown as mean myofiber cross-sectional area (μm^2).” left out
compound,measurement,value
"Cc1cc(OC(=O)c2c(C)cc(OC(=O)c3c(C)cc(O)cc3O)cc2O)cc(O)c1C(=O)O [gyrophoric acid, 4-[4-(2,4-dihydroxy-6-methylbenzoyl)oxy-2-hydroxy-6-methylbenzoyl]oxy-2-hydroxy-6-methylbenzoic acid]","in vivo muscle regeneration process (Pax7+ cells, myogenin+ cells, size of newly formed myofibers)",Able to Promote the In Vivo Muscle Regeneration Process
